Source: the supplement of paper PMC11061612

Tests used:
Assay in all cases: Bliss excess, mean over the matrix (fraction); higher = more synergy
[1] = system: NCI-H1648 (Lung Adenocarcinoma)
In short: (§1)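 Cell lines grown in DMEM/F12 or RPMI with 10% FBS were plated in 1536-well plates and held 24 hours at 37°C, 5% CO2 before 72 hours of exposure to two-drug dose matrices, with DMSO typically at 0.2%. CellTiter-Glo 2.0 luminescence gave viability, which was converted to inhibition. Vehicle wells were set to 0 and blank wells to 1. Combination Emax is the second-highest inhibition in the matrix, and Bliss excess is the observed combination effect minus the expected EA + EB − EA·EB, where EA and EB are the single-agent effects.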

[2] = system: KNS-62 (Squamous Cell Lung Carcinoma)
In short: as §1

[3] = system: OVKATE (Ovarian Carcinoma)
In short: as §1

[4] = system: SBC-5 (Small Cell Lung Carcinoma)
In short: as §1

DK-MG (Glioblastoma) = system: DK-MG (Glioblastoma)
In short: as §1

[5] = system: TOV-21G (Ovarian Carcinoma)
In short: as §1

[6] = system: SUP-HD1 (Hodgkin's Lymphoma)
In short: as §1

[7] = system: HT-3 (Cervical Carcinoma)
In short: as §1

[8] = system: MDA-MB-175-VII (Breast Carcinoma)
In short: as §1

[9] = system: RS4-11 (B-Lymphoblastic Leukemia)
In short: as §1

HT-144 (Melanoma) = system: HT-144 (Melanoma)
In short: as §1

[10] = system: NCI-H2023 (Non-Small Cell Lung Carcinoma)
In short: as §1

[11] = system: MRK-nu-1 (Breast Carcinoma)
In short: as §1

SK-MEL-24 (Melanoma) = system: SK-MEL-24 (Melanoma)
In short: as §1

[12] = system: HT-1197 (Bladder Carcinoma)
In short: as §1

[13] = system: SNU-1 (Gastric Carcinoma)
In short: as §1

[14] = system: NCI-H1975 (Lung Adenocarcinoma)
In short: as §1

GCIY (Gastric Carcinoma) = system: GCIY (Gastric Carcinoma)
In short: as §1

[15] = system: BC-1 (B-Cell Non-Hodgkin's Lymphoma)
In short: as §1

[16] = system: NCI-H2170 (Squamous Cell Lung Carcinoma)
In short: as §1

Row | SMILES | Bliss excess [1] | Bliss excess [2] | Bliss excess [3] | Bliss excess [4] | Bliss excess (DK-MG (Glioblastoma)) | Bliss excess [5] | Bliss excess [6] | Bliss excess [7] | Bliss excess [8] | Bliss excess [9] | Bliss excess (HT-144 (Melanoma)) | Bliss excess [10] | Bliss excess [11] | Bliss excess (SK-MEL-24 (Melanoma)) | Bliss excess [12] | Bliss excess [13] | Bliss excess [14] | Bliss excess (GCIY (Gastric Carcinoma)) | Bliss excess [15] | Bliss excess [16]
1 | Cc1c2c(nn1C)CSCc1cc(n(C)n1)CSc1cc(c3ccccc3c1)OCCCc1c(C(=O)O)n(C)c3c-2c(Cl)ccc13 [AZD5991] + Cn1cnc2c(F)c(Nc3ccc(Br)cc3Cl)c(C(=O)NOCCO)cc21 [Selumetinib] (first compound max 1 µM, 7x7, partner max 3 µM) | 0.0396 | -0.0171 | -0.0724 | 0 | 0.0143 | 0.0121 | -0.011 | 0.0926 | -0.0217 | 0.0021 | 0.01 | 0.0293 | 0.0052 | 0.0006 | -0.0375 | 0.0926 | 0.0208 | -0.0633 | 0.012 | -0.0377
2 | CC1(C)CCC(CN2CCN(c3ccc(C(=O)NS(=O)(=O)c4ccc(NCC5CCOCC5)c([N+](=O)[O-])c4)c(Oc4cnc5[nH]ccc5c4)c3)CC2)=C(c2ccc(Cl)cc2)C1 [Venetoclax] + Cn1cnc2c(F)c(Nc3ccc(Br)cc3Cl)c(C(=O)NOCCO)cc21 [Selumetinib] (first compound max 1 µM, 7x7, partner max 3 µM) | -0.0379 | -0.047 | -0.0584 | -0.0096 | -0.0177 | 0.0133 | -0.039 | -0.0218 | -0.0556 | 0.0052 | -0.0616 | -0.0489 | -0.0139 | -0.0001 | -0.0072 | -0.0541 | -0.0631 | -0.12 | 0.0211 | -0.0427
3 | NC1(C(=O)N[C@@H](CCO)c2ccc(Cl)cc2)CCN(c2ncnc3[nH]ccc23)CC1 [Capivasertib] + CC(C)n1c(=O)n(C)c2cnc3cc(F)c(-c4ccc(OCCCN5CCCCC5)nc4)cc3c21 [AZD1390] (first compound max 10 µM, 7x7, partner max 0.3 µM) | -0.0077 | -0.0458 | -0.0549 | -0.0792 | -0.0847 | -0.0076 | -0.136 | -0.035 | -0.0189 | 0.0078 | -0.0688 | -0.0587 | -0.0985 | -0.0251 | -0.0388 | -0.079 | -0.0165 | -0.0841 | -0.0175 | -0.0679
4 | Cc1c2c(nn1C)CSCc1cc(n(C)n1)CSc1cc(c3ccccc3c1)OCCCc1c(C(=O)O)n(C)c3c-2c(Cl)ccc13 [AZD5991] + C=CCn1c(=O)c2cnc(Nc3ccc(N4CCN(C)CC4)cc3)nc2n1-c1cccc(C(C)(C)O)n1 [AZD1775] (first compound max 1 µM, partner max 1 µM) | -0.0359 | 0.0251 | -0.0123 | 0.0501 | 0.0168 | -0.0865 | -0.106 | -0.0335 | -0.0223 | 0.0066 | 0.0284 | 0.0092 | -0.0285 | 0.0416 | -0.0866 | -0.0237 | -0.0523 | 0.0035 | -0.0314 | -0.0274
5 | COc1cccc(OCCCN)c1-c1cc(Nc2cnc(C#N)cn2)n[nH]1 [Prexasertib] + C=CCn1c(=O)c2cnc(Nc3ccc(N4CCN(C)CC4)cc3)nc2n1-c1cccc(C(C)(C)O)n1 [AZD1775] (first compound max 1 µM, partner max 1 µM) | 0.0286 | 0.0697 | -0.0665 | 0.0356 | -0.0125 | -0.0089 | 0.0009 | 0.159 | 0.106 | 0.0466 | 0.0666 | 0.0205 | 0.211 | 0.112 | -0.0589 | 0.084 | 0.0404 | 0.0355 | 0.0168 | 0.101
6 | COc1cccc(OCCCN)c1-c1cc(Nc2cnc(C#N)cn2)n[nH]1 [Prexasertib] + O=C(c1cc(Cc2n[nH]c(=O)c3ccccc23)ccc1F)N1CCN(C(=O)C2CC2)CC1 [Olaparib] (first compound max 1 µM, 7x7, partner max 10 µM) | 0.0051 | -0.0637 | -0.062 | -0.0376 | 0.0193 | -0.0111 | -0.091 | 0.0276 | -0.0407 | -0.0025 | -0.0264 | -0.0213 | -0.0392 | -0.0381 | -0.044 | -0.0533 | 0.0284 | -0.0476 | -0.0108 | -0.106
7 | CS(=O)(=O)CCNCc1ccc(-c2ccc3ncnc(Nc4ccc(OCc5cccc(F)c5)c(Cl)c4)c3c2)o1 [Lapatinib] + C[C@@H](Oc1cc(-c2cnn(C3CCNCC3)c2)cnc1N)c1c(Cl)ccc(F)c1Cl [Crizotinib] (first compound max 10 µM, 7x7, partner max 10 µM) | 0.0036 | -0.0527 | -0.0448 | 0.0601 | -0.0556 | -0.0289 | -0.0579 | -0.0357 | -0.0129 | -0.0183 | -0.0643 | -0.026 | 0.0477 | -0.118 | -0.0307 | 0.0039 | -0.0428 | -0.003 | -0.0557 | -0.0026
8 | COc1cccc(OCCCN)c1-c1cc(Nc2cnc(C#N)cn2)n[nH]1 [Prexasertib] + Cc1cc2ncnn2cc1Nc1ncc2c(n1)n(C1CCOCC1)c(=O)n2C [AZD7648] (first compound max 1 µM, 7x7, partner max 10 µM) | -0.0609 | -0.0225 | -0.0853 | -0.0116 | 0.0253 | 0.0057 | -0.0443 | -0.0098 | -0.0328 | -0.0159 | -0.0061 | -0.027 | -0.0258 | 0.0054 | -0.0206 | -0.0198 | 0.041 | -0.0648 | -0.0239 | -0.0074
9 | CN(CCO)CC[C@H](CSc1ccccc1)Nc1ccc(S(=O)(=O)NC(=O)c2ccc(N3CCC([C@@H](O)c4ccccc4-c4ccc(Cl)cc4)CC3)cc2)cc1S(=O)(=O)C(F)(F)F [AZD4320] + C=CCn1c(=O)c2cnc(Nc3ccc(N4CCN(C)CC4)cc3)nc2n1-c1cccc(C(C)(C)O)n1 [AZD1775] (first compound max 1 µM, partner max 1 µM) | -0.0353 | -0.0543 | 0.0271 | 0.0264 | -0.0789 | -0.0299 | -0.0383 | -0.0296 | 0.0035 | 0.0285 | 0.0392 | -0.0108 | -0.0295 | 0.001 | 0.0626 | 0.127 | 0.0195 | 0.0735 | 0.0386 | 0.0131
10 | NC1(C(=O)N[C@@H](CCO)c2ccc(Cl)cc2)CCN(c2ncnc3[nH]ccc23)CC1 [Capivasertib] + COc1nnc2ccc(N3CCC(c4ccc(OCCN5CCN(C)C(=O)[C@H]5C)cc4)CC3)nn12 [AZD5153] (first compound max 10 µM, 7x7, partner max 1 µM) | -0.0694 | 0.0035 | -0.0368 | 0.0351 | 0.0534 | 0.0011 | -0.047 | -0.0281 | 0.0129 | 0.089 | 0.0653 | 0.0221 | 0.0058 | 0.0073 | 0.0255 | 0.0177 | -0.0761 | -0.0265 | -0.0042 | 0.0383
11 | Cc1c2c(nn1C)CSCc1cc(n(C)n1)CSc1cc(c3ccccc3c1)OCCCc1c(C(=O)O)n(C)c3c-2c(Cl)ccc13 [AZD5991] + C[C@@H](Nc1cc(F)cc(F)c1)c1cc(C(=O)N(C)C)cc2c(=O)cc(N3CCOCC3)oc12 [AZD8186] (first compound max 1 µM, 7x7, partner max 3 µM) | -0.0508 | -0.0449 | -0.0298 | 0.0033 | 0.0095 | -0.0139 | -0.0414 | 0.0217 | -0.0006 | -0.0092 | 0.0622 | -0.0253 | 0.0152 | -0.0081 | -0.0055 | 0.002 | -0.0203 | -0.0611 | -0.0042 | 0.0095
12 | CCN(CCO)CCCOc1ccc2c(Nc3cc(CC(=O)Nc4cccc(F)c4)[nH]n3)ncnc2c1 [AZD2811] + O=C(c1cc(Cc2n[nH]c(=O)c3ccccc23)ccc1F)N1CCN(C(=O)C2CC2)CC1 [Olaparib] (first compound max 1 µM, 7x7, partner max 10 µM) | -0.0179 | -0.0171 | -0.0481 | 0.033 | 0.0024 | 0.0352 | 0.111 | 0.008 | -0.0012 | 0.0327 | -0.0266 | -0.0737 | -0.0037 | -0.0339 | 0.0045 | 0.0233 | 0.0034 | -0.0066 | -0.0401 | 0.0044
13 | CC(=O)c1c(C)c2cnc(Nc3ccc(N4CCNCC4)cn3)nc2n(C2CCCC2)c1=O [Palbociclib] + Cc1c2c(nn1C)CSCc1cc(n(C)n1)CSc1cc(c3ccccc3c1)OCCCc1c(C(=O)O)n(C)c3c-2c(Cl)ccc13 [AZD5991] (first compound max 10 µM, 7x7, partner max 1 µM) | -0.0084 | -0.0142 | -0.0382 | -0.0171 | -0.0018 | -0.0439 | -0.0704 | -0.0751 | 0.0232 | -0.0519 | -0.0757 | -0.0335 | -0.0869 | -0.0196 | -0.0289 | -0.0691 | -0.0357 | -0.0198 | -0.0028 | -0.0189
14 | CC1(C)CCC(CN2CCN(c3ccc(C(=O)NS(=O)(=O)c4ccc(NCC5CCOCC5)c([N+](=O)[O-])c4)c(Oc4cnc5[nH]ccc5c4)c3)CC2)=C(c2ccc(Cl)cc2)C1 [Venetoclax] + CN(C)CCCOc1ccc(-c2ccc3ncc4c(c3c2)n(C2CCOCC2)c(=O)n4C)cn1 [AZD0156] (first compound max 1 µM, 7x7, partner max 1 µM) | -0.0685 | -0.0183 | -0.0856 | 0.011 | -0.0222 | -0.0322 | -0.0962 | -0.0423 | -0.0319 | -0.0088 | 0.0366 | -0.058 | 0.0046 | -0.0426 | -0.0266 | -0.0069 | -0.0611 | 0.0131 | 0.0066 | 0.024
